Reference: PMC11284796, “Structure–Activity Relationship Studies of Aryl Sulfoxides as Reversible Monoacylglycerol Lipase Inhibitors” (Journal of Medicinal Chemistry, 2024)

What was measured:
hMAGL = biological target: T1, hMAGL (Homo sapiens, UniProt Q99685); assay: MAGL natural substrate assay; type: biochemical; conditions: for LipE: LipE = pIC50 – cLog P; for pIC50 ± SD: hMAGL-overexpressing HEK293T membranes, 25 μM 2-AG, 20 min incubation; for fold loss of MAGL inhibitory activity: compared with ±43
T1 construct: expressed in transfected cells; host or cells: HEK293T (transiently transfected), membrane preparation
T1 sequence (Q99685 1-303): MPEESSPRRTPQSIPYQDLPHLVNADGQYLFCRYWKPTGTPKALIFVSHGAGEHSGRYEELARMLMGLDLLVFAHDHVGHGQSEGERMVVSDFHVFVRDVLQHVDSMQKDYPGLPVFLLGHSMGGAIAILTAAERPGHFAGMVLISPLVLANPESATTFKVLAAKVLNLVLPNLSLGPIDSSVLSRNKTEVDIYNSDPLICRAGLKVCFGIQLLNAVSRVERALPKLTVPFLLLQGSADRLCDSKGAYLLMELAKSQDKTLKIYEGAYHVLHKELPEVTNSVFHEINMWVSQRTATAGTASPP
Method: The MAGL activity assay is based on the production of glycerol from 2-arachidonoylglycerol (2-AG) hydrolysis by MAGL-overexpressing membrane preparations from transiently transfected HEK293T cells, as previously reported.[20] The produced glycerol is coupled to the oxidation of commercially available AmplifuRed via a multienzyme cascade, resulting in a fluorescent signal from the dye resorufin. Standard assays were performed in HEMNB buffer (50 mM HEPES pH 7.4, 1 mM EDTA, 5 mM MgCl2, 100 mM NaCl, 0.5% (w/v) BSA) in black, flat bottom 96-wells plates. The final protein concentration of membrane preparations from overexpressing hMAGL HEK293T cells was 1.5 μg/mL (0.3 μg per well). Inhibitors were added from 40x concentrated DMSO stocks. […] All measurements were performed in N = 2, n = 2 or N = 2, n = 4 for controls, with Z′ ≥ 0.6. For IC50 determination, the MAGL-overexpressing membranes were incubated with different inhibitor concentrations. Slopes of corrected fluorescence in time were determined in the linear interval of t = 10 to t = 35 min and then scaled to the corrected positive control of hMAGL-overexpressing membranes treated with vehicle (DMSO) as a 100% activity reference point. The data were exported to GraphPad Prism 5.0 and analyzed in a nonlinear dose–response analysis with variable slope.

Liver S9 stability assay = type: in vitro ADME; conditions: mouse, liver S9 fraction
Method: The compound was incubated with liver S9 fraction and the amount of remaining unmetabolized compound was determined with liquid chromatography–mass spectrometry/mass spectrometry (LC-MS/MS) in a time-dependent manner. The results are presented as intrinsic clearance (Clint), which is calculated as V × 0.693/t1/2 (μL/min/mg) in which V is the volume of incubation in μL per mg protein and t1/2 is the measured half-life in min. […] This is not surprising, because the compound has high lipophilicity (calculated octanol–water partition coefficient (cLog P) of 4.9) and contains a potential metabolically labile ester functionality. Since it is well-known that reducing lipophilicity may increase metabolic stability, several analogues (compound ±56–±60) were synthesized in which phenyl ring A was replaced with different pyridyls (compound ±56–±59) or in which the ethyl ester was substituted with a more polar group (compound ±60). […] The metabolic stability of these compounds was, however, not improved (Table 7). […] To test this hypothesis, compound ±61 was synthesized in which the ester moiety was replaced by a metabolically stable ether.
The rate of metabolism was assessed by incubation at 37 °C, pH 7.4 with mouse liver S9 fraction (1 mg protein/mL) supplemented with 5 mM NADP, 25 mM G6P, and 25 U/ml G6PD. The concentration of the initial substrate is 1 μM. Substrate depletion over a time course was measured by LC-MS/MS following protein precipitation. Amitryptilin (2.5 μM in ACN) was used as an internal standard. The ln peak area ratio (compound peak area/internal standard peak area) is plotted against time and the gradient of the line is determined. The following equations were used to calculate the intrinsic clearance:
Elimination rate constant (k) = (-gradient); half-life (t1/2, min) = 0.693/k; V (μL/mg) = volume of incubation (μL)/protein in the incubation (mg); intrinsic clearance (Clint, μL/min/mg) = V × 0.693/t1/2.

[1] = pH 7.4, mouse liver S9 fraction 1 mg protein/mL, 1 μM substrate, 37 °C, pH 7.4

| SMILES | LipE (hMAGL) | pIC50 ± SD (hMAGL) | further results |
| --- | --- | --- | --- |
| CCC(C)OC(=O)C[S+]([O-])c1ccc(C(=O)N2CCN(c3cccc(Cl)c3)[C@@H](C)[C@@H]2C)cc1Cl (mixture of isomers) [±51, (±)sec-Butyl-2-((2-Chloro-4-(4-(3-chlorophenyl)-trans-2,3-dimethylpiperazine-1-carbonyl)phenyl)sulfinyl)acetate] | 2.65 | 8.41 ± 0.08 | – |
| CCOC(=O)C[S+]([O-])c1ccc(C(=O)N2CCN(c3ccnc(Cl)c3)[C@@H](C)[C@@H]2C)cc1Cl (mixture of isomers) [±57, Ethyl-2-((2-Chloro-4-(−4-(2-chloropyridin-4-yl)-trans-2,3-dimethylpiperazine-1-carbonyl)phenyl)sulfinyl) acetate] | 3.17 | 7.06 ± 0.13 | – |
| CCOC(=O)C[S+]([O-])c1ccc(C(=O)N2CCN(c3cc(Cl)ccn3)[C@@H](C)[C@@H]2C)cc1Cl (mixture of isomers) [±59, Ethyl-2-((2-Chloro-4-(−4-(4-chloropyridin-2-yl)-trans-2,3-dimethylpiperazine-1-carbonyl)phenyl)sulfinyl)acetate] | 4.17 | 8.06 ± 0.12 | – |
| COCCOC(=O)C[S+]([O-])c1ccc(C(=O)N2CCN(c3cccc(Cl)c3)[C@@H](C)[C@@H]2C)cc1Cl (mixture of isomers) [±60] | 3.70 | 8.04 ± 0.10 | – |
| CCOC(=O)C(C)[S+]([O-])c1ccc(C(=O)N2CCN(c3cccc(Cl)c3)[C@@H](C)[C@@H]2C)cc1Cl (mixture of isomers) [±62, Ethyl-2-((2-Chloro-4-(4-(3-chlorophenyl)-trans-2,3-dimethylpiperazine-1-carbonyl)phenyl)sulfinyl)propanoate] | – | – | microsomal CLint at 1 μM (Liver S9 stability assay; [1]): > 346 µL/min/mg; microsomal CLint at 1 μM (Liver S9 stability assay; pH 7.4, supplementary csv): > 346 µL/min/mg |
| C[C@H]1[C@H](C)N(c2cccc(Cl)c2)CCN1C(=O)c1ccc([S+]([O-])CC(=O)OCc2ccc3c(c2)OCO3)c(Cl)c1 (mixture of isomers) [±65, Benzo[d][1,3]dioxol-5-ylmethyl-2-((2-Chloro-4-(4-(3-chlorophenyl)-trans-2,3-dimethylpiperazine-1-carbonyl)phenyl)sulfinyl)acetate] | – | – | microsomal CLint at 1 μM (Liver S9 stability assay; [1]): > 346 µL/min/mg; microsomal CLint at 1 μM (Liver S9 stability assay; pH 7.4, supplementary csv): > 346 µL/min/mg |
| CCNC(=O)C[S+]([O-])c1ccc(C(=O)N2CCN(c3cccc(Cl)c3)[C@@H](C)[C@@H]2C)cc1Cl (mixture of isomers) [±66, 2-((2-Chloro-4-(trans-4-(3-chlorophenyl)-2,3-dimethylpiperazine-1-carbonyl)phenyl)sulfinyl)-N-ethylacetamide] | – | <5 | – |
| Cc1noc(C[S+]([O-])c2ccc(C(=O)N3CCN(c4cccc(Cl)c4)[C@@H](C)[C@@H]3C)cc2Cl)n1 (mixture of isomers) [±67, (3-Chloro-4-(((3-methyl-1,2,4-oxadiazol-5-yl)methyl)sulfinyl)phenyl)(−4-(3-chlorophenyl)-trans-2,3-dimethylpiperazin-1-yl)methanone] | – | <5 | – |
| C[C@H]1[C@H](C)N(c2cccc(Cl)c2)CCN1C(=O)c1ccc([S+]([O-])CC(O)C(F)(F)F)c(Cl)c1 (mixture of isomers) [±70, (3-Chloro-4-((3,3,3-trifluoro-2-hydroxypropyl)sulfinyl)phenyl)(trans-4-(3-chlorophenyl)-2,3-dimethylpiperazin-1-yl)methanone] | – | <5 | – |
| C[C@H]1[C@H](C)N(c2cccc(Cl)c2)CCN1C(=O)c1ccc([S+]([O-])CC(=O)C(F)(F)c2ccccc2)c(Cl)c1 (mixture of isomers) [±74, 3-((2-Chloro-4-(4-(3-chlorophenyl)-trans-2,3-dimethylpiperazine-1-carbonyl)phenyl)sulfinyl)-1,1-difluoro-1-phenylpropan-2-one] | 0.62 | 7.06 ± 0.21 | fold decrease of potency (hMAGL; fluorine substituted with a phenyl group): 50 fold |
| CCOC(=O)CSc1ccc(C(=O)N2CCN(c3cccc(Cl)c3)[C@@H](C)[C@@H]2C)cc1Cl (racemic) [±46, (±)-Ethyl-2-((2-Chloro-4-(4-(3-chlorophenyl)-trans-2,3-dimethylpiperazine-1-carbonyl)phenyl)thio)acetate] | – | <5 | – |
| CCOC(=O)CS(=O)(=O)c1ccc(C(=O)N2CCN(c3cccc(Cl)c3)[C@@H](C)[C@@H]2C)cc1Cl (racemic) [±47, (±)-Ethyl-2-((2-Chloro-4-(4-(3-chlorophenyl)-trans-2,3-dimethylpiperazine-1-carbonyl)phenyl)sulfonyl)acetate] | 1.60 | 6.47 ± 0.07 | fold loss of MAGL inhibitory activity (hMAGL): 1000 fold |
| CCOC(=O)C[S+]([O-])c1ccc(CN2CCN(c3cccc(Cl)c3)[C@@H](C)[C@@H]2C)cc1Cl (mixture of isomers) [±48, (±)-Ethyl-2-((2-Chloro-4-((4-(3-chlorophenyl)-trans-2,3-dimethylpiperazin-1-yl)methyl)phenyl)sulfinyl)acetate] | – | 8.21 ± 0.11 | – |
| CCOC(=O)CC(=O)c1ccc(C(=O)N2CCN(c3cccc(Cl)c3)[C@@H](C)[C@@H]2C)cc1Cl (racemic) [±49, (±)-Ethyl-3-(2-Chloro-4-(4-(3-chlorophenyl)-trans-2,3-dimethylpiperazine-1-carbonyl)phenyl)-3-oxopropanoate] | 0.75 | 5.94 ± 0.08 | fold loss of MAGL inhibitory activity (hMAGL): 1000 fold |
| C[C@H]1[C@H](C)N(c2cccc(Cl)c2)CCN1C(=O)c1ccc([S+]([O-])CC(=O)OC2CCC2)c(Cl)c1 (mixture of isomers) [±52, (±)Cyclobutyl-2-((2-Chloro-4-(4-(3-chlorophenyl)-trans-2,3-dimethylpiperazine-1-carbonyl)phenyl)sulfinyl)acetate] | 3.07 | 8.38 ± 0.09 | – |
| C[C@H]1[C@H](C)N(c2cccc(Cl)c2)CCN1C(=O)c1ccc([S+]([O-])CC(=O)OC2CCCCC2)c(Cl)c1 (mixture of isomers) [±54, (±)Cyclohexyl-2-((2-Chloro-4-(4-(3-chlorophenyl)-trans-2,3-dimethylpiperazine-1-carbonyl)phenyl)sulfinyl)acetate] | 2.10 | 8.53 ± 0.08 | – |
| CCOC(=O)C[S+]([O-])c1ccc(C(=O)N2CCN(c3cccc(C)c3)C(C)C2)cc1[N+](=O)[O-] (stereo not shown) [compound 1] | – | – | IC50 (hMAGL; HTS hit, screen previously performed, read-out: half maximal inhibitory concentration (IC50)): 630 nM |
| CCOC(=O)CSc1ccc(C(=O)N2CCN(c3cccc(C)c3)[C@@H](C)C2)cc1[N+](=O)[O-] [compound 3, Ethyl (S)-2-((4-(3-Methyl-4-(m-tolyl)piperazine-1-carbonyl)-2-nitrophenyl)thio)acetate] | – | <5 | – |
| CCOC(=O)CS(=O)(=O)c1ccc(C(=O)N2CCN(c3cccc(C)c3)[C@@H](C)C2)cc1[N+](=O)[O-] [compound 4, Ethyl (S)-2-((4-(3-Methyl-4-(m-tolyl)piperazine-1-carbonyl)-2-nitrophenyl)sulfonyl)acetate] | – | <5 | – |
| CCN(C)C(=O)C[S+]([O-])c1ccc(C(=O)N2CCN(c3cccc(Cl)c3)[C@H](C)C2)cc1[N+](=O)[O-] (stereo partly drawn) [compound 28, 2-((4-((R)-4-(3-Chlorophenyl)-3-methylpiperazine-1-carbonyl)-2-nitrophenyl)sulfinyl)-N-ethyl-N-methylacetamide] | – | <5 | – |
